What was measured:
[1] = system: full length SMN2 minigene mRNA containing SMN2 exon 7 (SMN2-A minigene); experiment: SMN2 minigene mRNA splicing RT-qPCR assay in cultured cells; format: cell-based, human; details: Homo sapiens, HEK293-H; HEK293H cells stably transfected with SMN2-A minigene, 24 hours, 7-point concentration curve; concentration giving 1.5-fold SMN2 full length mRNA vs vehicle; read-out: EC1.5x for production of full length SMN2 mRNA
How it was run: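 HEK293H cells stably carrying the SMN2-A minigene were treated 24 h at 37 °C with a 7-point, 3.16-fold test compound series, in duplicate. Multiplex RT-qPCR measured exon 7-containing minigene FL mRNA, normalized to GAPDH and expressed relative to vehicle; EC1.5x is the concentration giving 1.5-fold FL mRNA.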

[2] = system: Smn protein; experiment: Smn protein assay (Smn HTRF) in cultured cells; format: cell-based, human; details: Homo sapiens, Fibroblast, GM03813 SMA Type 1 patient fibroblasts, 48 hours, HTRF; for maximal fold induction: 7-point concentration data, relative to vehicle, read-out: maximum fold (Fold) increase of Smn protein; for EC (1.5-fold): concentration producing 1.5 times Smn protein vs DMSO vehicle, read-out: EC1.5x for Smn protein expression
How it was run: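 SMA patient fibroblasts (5,000/well) were exposed to a 7-point, 3.16-fold compound dilution series for 48 hours at 37° C, in triplicate. Lysates were read by HTRF with anti-SMN d2/kryptate at 665/620 nm. Blank-corrected signal was expressed as fold over DMSO vehicle, giving the EC1.5x and the maximum fold increase.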

Structure (SMILES)	EC (1.5-fold) [1]	maximal fold induction [2]	melting point	EC (1.5-fold) [2]
CCN1CCN(c2ccc3oc(-c4cccnc4)cc(=O)c3c2)CC1 [Cpd 3, 6-(4-ethylpiperazin-1-yl)-2-(pyridin-3-yl)-4H-chromen-4-one]	3 to 30 µM	≤ 1.2	140 to 142 °C	
C[C@H]1CN(c2ccc3oc(-c4cncc(F)c4)cc(=O)c3c2)CCN1 [Cpd 75, 2-(5-fluoropyridin-3-yl)-6-[(3S)-3-methylpiperazin-1-yl]-4H-chromen-4-one]	0.3 to 1 µM	1.5 to 1.65	168 to 172 °C	1 to 3 µM
COc1ccc(-c2cc(=O)c3cc(N4CCN[C@@H](C)C4)ccc3o2)cc1Cl [Cpd 59, 2-(3-chloro-4-methoxyphenyl)-6-[(3S)-3-methylpiperazin-1-yl]-4H-chromen-4-one]	≤ 0.1 µM	1.5 to 1.65	172 to 174 °C	≤ 0.3 µM
COc1ccc(-c2cc(=O)c3cc(N4CCCN(C)CC4)ccc3o2)cc1OC [Cpd 26, 2-(3,4-dimethoxyphenyl)-6-(4-methyl-1,4-diazepan-1-yl)-4H-chromen-4-one]	3 to 30 µM	1.35 to 1.5	106 to 108 °C	
C[C@@H]1CN(c2ccc3oc(-c4nc5ccccc5s4)cc(=O)c3c2)C[C@H](C)N1 [Cpd 34, 2-(1,3-benzothiazol-2-yl)-6-[(3R,5S)-3,5-dimethylpiperazin-1-yl]-4H-chromen-4-one]	0.3 to 1 µM	1.35 to 1.5	200 to 202 °C	
O=c1cc(-c2ccccn2)oc2ccc(N3CCNCC3)cc12 [Cpd 7, 6-(piperazin-1-yl)-2-(pyridin-2-yl)-4H-chromen-4-one]	0.3 to 1 µM	1.5 to 1.65	170 to 172 °C	3 to 10 µM

Source: patent US9914722B2, “Compounds for treating spinal muscular atrophy” (PTC Therapeutics Inc., priority 2012, dated 2018)
